Counter-ions that a name gives are not always drawn. No end group written: not given here.

The test system of series [1] is D-Galactose induced aging model rats. In words: Water maze learning, D-galactose induced aging. In kind it is in vivo, Sprague-Dawley rats. The note with it: D-galactose 150 mg/kg/day i.p. alone for 9 weeks. The method, then: (§1) A plastic circular pool 183 cm in diameter was filled with water (25±2° C.). A circular platform was placed at a specific location from the edge of the pool and submerged below the water surface. Water was made cloudy by adding toxic-free dye. Distinctive visual cues were set on the wall. For spatial learning, animals were subjected to 3 trials per day, with one trial early in the morning, one trial at noon, and another in the late afternoon. The training procedure lasted 4 days, and a total of 12 trials were given. The rats were positioned at different starting points spaced equally around the perimeter of the pool in random order. They had 60 seconds to swim in the pool. If a rat could not find the platform, it was guided to the platform and was allowed to remain there for 20 seconds. The time each animal took to reach the platform was recorded as the escape latency. A probe trial of 60 seconds was given on Day 5 to test their memory retention. The rats were placed in the pool with the platform removed, and the time they spent in each quadrant (Quadrants 1, 2, 3, and 4) was recorded. The longer a rat stayed in the target quadrant (quadrant 4), the better memory the rat had. At the end of the experiment, the rats were subjected to visible platform learning. […] The time the rats found the platform was recorded. […]

In series [2] the test system is MPTP-mouse model of Parkinson's disease. Nature of the series: Rotarod performance test. In kind it is in vivo, C57BL/6 male mice. The settings on record: MPTP 30 mg/kg i.p. alone; negative control 778.5 seconds; p<0.01. The method, then: C57BL/6 male mice at the age of 5 weeks were randomly divided into 3 groups and intraperitoneally injected with PBS (negative control), MPTP (30 mg/kg)(MPTP group), and C6 peptide (10.7 μg/kg) and MPTP (30 mg/kg)(C6+MPTP group), respectively. The injection volume was calculated based on the body weight of each mouse everyday. Mice of the C6+MPTP group were injected C6 peptide for 3 weeks prior to injection of C6 peptide and MPTP for 1 week, and then subjected to rotarod performance test.
Rotarod performance tests were conducted to measure the coordination of mice. Mice were placed on the rod and ran at 2 rpm constant speed for 2 minutes in order to adapt to the rod. After that, rod was started to accelerate to 20 rpm (within 5 minutes) and sustained for 15 minutes. The time (latency) at which each mouse fell off the rod was recorded.
A general note: The rotarod test checks motor coordination on a turning rod.

Series [3] relates to Sco-induced amnesia animal model. Nature of the series: Step-down passive avoidance test, scopolamine-induced memory deficits. In kind it is in vivo, Sprague-Dawley rats. The note with it: scopolamine 1.5 mg/kg/day alone; 1 day after footshock; vs control.
Protocol: Animals were familiar to the instrument 24 hours before training. Next day rats placed on the elevated platform situated in the center of the floor of the passive avoidance test box and the latency to stepping down recorded. On the third day of the experiment immediately after stepping down, animals received mild electric shock (3V, 3 seconds duration, D.C.) through the grid floor and then returned to their home cages. On the following day (as 24 hours retention interval) rats placed on the platform again while no electric shock was given to them. Latency to step down recorded. If the rat remained on the platform for the 5 minutes, it assigned a maximum score of 300 seconds.
Rats were randomly divided into negative control group, Scopolamine only group, (C5+Sco) group and (C6+Sco) group, and rats in the four groups were injected with vehicle (negative control group and scopolamine only group), C5 peptide (54 μg/kg/day, C5+Sco group), and C6 peptide (5.4 μg/kg/day, C6+Sco group), respectively, for 14 consecutive days. After that, rats in the 4 groups were intraperitoneally injected with vehicle (negative control group), vehicle and scopolamine (1.5 mg/kg/day)(scopolamine only group), C5 peptide (54 μg/kg/day) and scopolamine (1.5 mg/kg/day) (C5+Sco group), and C6 peptide (5.4 μg/kg/day) and scopolamine (1.5 mg/kg/day) (C6+Sco group), respectively, for 7 consecutive days. […]
The test system is the same in series [4]. Nature of the series: Novel object recognition learning, scopolamine-induced memory deficits. In kind it is in vivo, Sprague-Dawley rats. The settings on record: scopolamine 1.5 mg/kg/day alone; vs time on left object; P>0.05. The method, then:
During familiarization, rats were allowed to explore 2 identical objects in an open field box (90×70×60 cm) for 5 min. The criteria used for exploration were a distance less than 1.5 cm between the rat and the object or direct contact with the object. During the retention test given 3 hours and 24 hours later, the rats were returned to the same box, but one of the familiar objects was replaced with a novel object of approximately the same size. The time that each rat spent exploring the 2 objects during a 5-min period was recorded. The rats placed in the open field box without any objects for 5 min were assigned to the non-trained group.
Both C5 peptide and C6 peptide ameliorate scopolamine-induced memory deficits. […] Then, behavioral experiments were conducted, and the injection program with scopolamine continued through the experimentation. The injection volume was 1 μL/g of body weight. The scopolamine injection was performed 30 minutes before behavioral experiments every morning, and the C5 peptide or C6 peptide injection was conducted once daily at 5:00 PM 1 day prior. […] Three (3) hours, 8 hours and 24 hours after, a novel object (NO) replaced the RO.

For series [5] the test system is unchanged. Nature of the series: Water maze learning, scopolamine-induced memory impairment. The note with it: scopolamine 1.5 mg/kg/day i.p. alone; vs negative control; P<0.01. In kind it is in vivo, Sprague-Dawley rats. Here is the method: as §1
In series [6] the test system is embryonic hippocampal primary neurons. In words: Cell viability (MTT) assay for neurotoxicity. The note with it: 10^−3 M, 10^−6 M, 10^−9 M, 10^−12M for 24 hours from 1 DIV; p>0.05. In kind it is cell-based, Sprague-Dawley rats. Here is the method:
At the first day in vitro (1 DIV), embryonic hippocampal primary neurons were treated with 10^−3 M, 10^−6 M, 10^−9 M, 10^−12M C5 peptide or C6 peptide, respectively, for 24 hours, followed by cell viability assay.
Cell viability was evaluated by an MTT (3-(4,5-cimethylthiazol-2-yl)-2,5-diphenyl tetrazolium bromide) assay. Cells were incubated with an MTT reagent (0.5 mg/mL, Sigma-Aldrich, USA) at 37° C. for 1 hour. The MTT solution was removed, and DMSO was added to the wells shaken at room temperature for 1 hour. The amount of MTT formazan product was quantified by measuring its absorbance at 570 and 630 nm by using an ELISA plate reader (SpectraMax M2 Microplate Readers, Molecular Devices, Sunnyvale, Calif., USA).

Series [7] shares this test system. Nature of the series: Neuronal outgrowth assay with immunocytochemistry (anti-Tau, anti-MAP2, DAPI). In kind it is cell-based, Sprague-Dawley rats. The note with it: for lengths of the first and second order axon branches: p<0.01 or p<0.05; for axon outgrowth: L-form peptide 10^−9 M, treatment at 3 DIV for 3 days, vs PBS negative control. The method, then:
In order to culture embryonic hippocampal primary neurons, pregnant Sprague-Dawley rats were purchased from the National Laboratory Center in Taiwan (Taipei, Taiwan). The hippocampal tissue from the embryos of the Sprague-Dawley rats (embryonic day 19, E19) was dissociated with enzyme and plated onto poly-L-lysine-coated coverslips with a minimal essential medium containing 5% calf serum, 5% horse serum, and 50 ng/mL insulin-transferrin-selenite (Sigma-Aldrich, St. Louis, Mo., USA). After plating, the medium was replaced with 2% of B27-neurobasal medium (Invitrogen, Carlsbad, Calif., USA) containing 0.5 mM glutamine and […]. Embryonic hippocampal primary neurons were incubated at 37° C., 5% CO2 for further experimental treatment.
Primary hippocampal neuron cultures at 3 days in vitro (at DIV3) were treated with 10^−9 M, 10^−12M, 10^−15 M C5 peptide (L-form), 10^−9 M, 10^−12M, 10^−15 M C6 peptide (L-form), 10^−9 M P1 peptide (L-form), 10^−9 M P2 peptide (L-form), 10^−9 M P3 peptide (L-form), 10^−9 M P4 peptide (L-form), 10^−9 M P5 peptide (L-form), 10^−9 M P6 peptide (L-form), 10^−9 M C5 peptide (D-form), and 10^−12 C6 peptide (D-form), respectively, for 3 days, followed by immunocytochemistry. Embryonic hippocampal primary neurons of negative control were treated with PBS. Each treatment condition was run in 3 replicates.
Cultured hippocampal neurons were fixed with 4% paraformaldehyde and permeablized with 0.1% Triton X-100 at room temperature (RT). Cultures were then incubated in the primary rabbit anti-Tau antibody (a selective marker for axons, Millipore, Mass., USA) and the primary mouse anti-MAP2 antibody (microtubule-associated protein-2, which is a selective marker for dendrites, Millipore) for 1 hour at RT. After wash, cells were incubated with Alexa Fluor® 488 goat anti-rabbit secondary antibody (green fluorescence, Abcam Plc., UK) and Alexa Fluor® 594 goat anti-mouse secondary antibody (red fluorescence, Abcam Plc.) for 1 hour at RT. Then, nuclei were stained with 4′,6-diamidino-2-phenylindole (DAPI, blue fluorescence, Vector Laboratories, USA). After that, coverslips were mounted on the cells, and images were obtained by using an Axio Observer D1 microscope (Zeiss, Jena, Germany) and analyzed by ImageJ software (Inage Processing and Analysis in Java, National Institutes of Health, USA). Neuronal process longer than 10 μm is defined as a neurite.
An axon extending from the cell body of a neuron is defined as a first order axon branch; an axon extending from a first order axon branch is defined as a second order axon branch, and an axon extending from a second order axon branch is defined as a third order axon branch, et cetera (FIG. 3A). Only axons longer than 10 μm are counted.

For the compound `O=C[C@H](O)[C@@H](O)[C@@H](O)[C@H](O)CO` [D-Galactose, D-(+)-galactose], the “average escape latency in finding the hidden platform” value in series [1] came out at 53.06 s. With `CN1CC=C(c2ccccc2)CC1` [MPTP, 1-methyl-4-phenyl-1,2,3,6-tetrahydropyridine], in series [2], the “average latency to fall” value was determined as 159.8 s. For the compound `CN1[C@@H]2C[C@@H](OC(=O)[C@H](CO)c3ccccc3)C[C@H]1[C@@H]1O[C@@H]12` [Sco, Scopolamine hydrochloride], in series [3], the “stepping down (jumping error number)” value is “stepped down more”. The “exploratory preference for the novel object (NO)” value in series [4] is listed as “no exploratory preference for the NO”. Moreover, the “escape latency in finding the hidden platform” value in series [5] was “longer escape latency”. As to NAIPQ [C5 peptide, NAIPQ], the “neurotoxic effect (cell viability, MTT)” value in series [6] is reported as “no significant neurotoxic effect”. On to “NFEPQ (Petide for enhancing neuronal outgrowth) [P1 peptide]”, for which, in series [7] (10^−9 M, vs negative control), the “lengths of the first and second order axon branches” value is “longer”. Further, the axon outgrowth entry in series [7] is “enhanced axon outgrowth”. On to “NIKPQ (Petide for enhancing neuronal outgrowth) [P3 peptide]”, for which the “lengths of the first and second order axon branches” value in series [7] (10^−9 M, vs negative control) was “longer”. For the same compound, the axon outgrowth entry in series [7] is given as “enhanced axon outgrowth”. On to “NLMPQ (Petide for enhancing neuronal outgrowth) [P4 peptide]”, for which, in series [7] (10^−9 M, vs negative control), the “lengths of the first and second order axon branches” value was “longer”. Further, the axon outgrowth result in series [7] is given as “enhanced axon outgrowth”. For “NMYPQ (Petide for enhancing neuronal outgrowth) [P2 peptide]”, in that order: “longer” and “enhanced axon outgrowth”. With NPSPQ [C6 peptide, NPSPQ], the “neurotoxic effect (cell viability, MTT)” value in series [6] is “no significant neurotoxic effect”. As for “NVAPQ (Petide for enhancing neuronal outgrowth) [P5 peptide]”, the “lengths of the first and second order axon branches” value in series [7] (10^−9 M, vs negative control) is recorded as “longer”. Moreover, the axon outgrowth result in series [7] is recorded as “enhanced axon outgrowth”. Take “NWLPQ (Petide for enhancing neuronal outgrowth) [P6 peptide]”: in series [7] (10^−9 M, negative control 2.5, p<0.01), the “average number of second order axon branches” value was 4.2. In addition, the “lengths of the first and second order axon branches” value in series [7] (10^−9 M, vs negative control) was “longer”. In series [7] (10^−9 M, vs negative control, p<0.05), the “lengths of the third order axon branches” value was “significantly longer”. For the same compound, the axon outgrowth result in series [7] is reported as “enhanced axon outgrowth”.

For the origin of these results see patent publication US10407465B2, “Peptides enhancing neuronal outgrowth and application thereof” (Schweitzer Biotech Company Ltd., priority 2014, dated 2019).
